Test results reported in patent publication US7427625B2, “Substituted thiatriazaacenaphthylene-6-carbonitrile kinase inhibitors” (Janssen Pharmaceutica, N.V., priority 2006, dated 2008).
pIC50: −log10 of the molar value.

Key:
Format in all cases: biochemical
HER-2 = biological target: T1, HER-2 (Homo sapiens, UniProt P04626); experiment: HER-2 Kinase Assay
T1 construct: the nucleotides encoding amino acids 679 to 1255 of HER-2; purchased Proqinase (Freiburg, Germany)
Summary of the method: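 GST-HIS6-thrombin fusion of HER-2 residues 679–1255, assayed with biotinylated polyGluTyr, 1 μM ATP plus γ-33P-ATP, Mg2+, Mn2+ and vanadate in Hepes pH 7.5 for 1 h at 30 °C. Incorporation read by streptavidin Flashplate scintillation counting; IC50 values, or % inhibition at 1 μM.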

c-Src kinase = biological target: T2, c-Src kinase (Homo sapiens, UniProt P12931); experiment: c-Src Kinase Assay; settings: for inhibition at 2 µM: test concentration of 2 μM, read-out: c-Src percent inhibition
T2 construct: purchased Upstate Biotechnology, Lake Placid, N.Y
T2 sequence (P12931 whole entry): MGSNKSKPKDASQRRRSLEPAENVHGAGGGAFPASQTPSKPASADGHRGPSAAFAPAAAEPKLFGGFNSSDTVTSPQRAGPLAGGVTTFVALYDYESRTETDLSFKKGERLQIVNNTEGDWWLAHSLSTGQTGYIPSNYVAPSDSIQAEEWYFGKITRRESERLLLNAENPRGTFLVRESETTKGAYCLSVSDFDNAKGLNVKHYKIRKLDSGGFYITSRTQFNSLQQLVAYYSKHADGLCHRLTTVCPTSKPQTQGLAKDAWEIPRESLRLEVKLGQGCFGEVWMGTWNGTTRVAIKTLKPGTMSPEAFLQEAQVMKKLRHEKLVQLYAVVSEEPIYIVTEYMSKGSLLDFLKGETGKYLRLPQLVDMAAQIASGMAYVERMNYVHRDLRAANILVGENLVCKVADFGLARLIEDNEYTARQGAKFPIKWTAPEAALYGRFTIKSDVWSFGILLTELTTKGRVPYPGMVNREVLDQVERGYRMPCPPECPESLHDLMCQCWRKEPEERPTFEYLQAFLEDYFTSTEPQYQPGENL
Protocol: A mixture of a 10× kinase buffer (80 mM MOPS at pH 7.0, 2 mM EDTA and 100 mM Magnesium Chloride), ATP (5 μM final from a 10 mM stock), a Cdc2 peptide KVEKIGEGTYVVYK (100 μM final from a 2.5 mM stock), γ-^33P ATP (10 μCi/μL stock) and water (20 μL/well) was added to each well of a Streptavidin Flashplate.
Test compound in 100% DMSO (0.5 μL) was added to the appropriate wells. Diluted c-Src kinase (human) (Upstate Biotechnology, Lake Placid, N.Y.) (diluted in a buffer consisting of 20 mM MOPS at pH 7.0, 1 mM EDTA, β-mercaptoethanol (0.1%), Brij-35 (0.01%), glycerol (5%) and 1 mg/mL bovine serum albumin) (2.5 μL) was added to the wells to initiate the reactions. The reaction plates were incubated at 30° C. for 40 min. The reaction was terminated by the addition of a 3% phosphoric acid solution (5 μL). The reaction product (10 μL) was spotted onto a P30 filtermat and washed for 5 minutes in phosphoric acid (75 mM). The wash sequence was repeated two more times, followed with one final wash in methanol. The plates were then dried, sealed and read on the TopCount scintillation counter after adding 30 μL scintillation fluid.
(§1) Percent inhibition was derived according to the procedure described in Example 2. For those compounds without an IC50, the percent inhibition results are shown at a test concentration of 2 μM.

Lyn kinase = biological target: T3, Lyn kinase (Homo sapiens, UniProt P07948); experiment: Lyn Kinase Assay; settings: for inhibition at 2 µM: test concentration of 2 μM, read-out: Lyn percent inhibition
T3 construct: purchased Upstate Biotechnology, Lake Placid, N.Y
T3 sequence (P07948 whole entry): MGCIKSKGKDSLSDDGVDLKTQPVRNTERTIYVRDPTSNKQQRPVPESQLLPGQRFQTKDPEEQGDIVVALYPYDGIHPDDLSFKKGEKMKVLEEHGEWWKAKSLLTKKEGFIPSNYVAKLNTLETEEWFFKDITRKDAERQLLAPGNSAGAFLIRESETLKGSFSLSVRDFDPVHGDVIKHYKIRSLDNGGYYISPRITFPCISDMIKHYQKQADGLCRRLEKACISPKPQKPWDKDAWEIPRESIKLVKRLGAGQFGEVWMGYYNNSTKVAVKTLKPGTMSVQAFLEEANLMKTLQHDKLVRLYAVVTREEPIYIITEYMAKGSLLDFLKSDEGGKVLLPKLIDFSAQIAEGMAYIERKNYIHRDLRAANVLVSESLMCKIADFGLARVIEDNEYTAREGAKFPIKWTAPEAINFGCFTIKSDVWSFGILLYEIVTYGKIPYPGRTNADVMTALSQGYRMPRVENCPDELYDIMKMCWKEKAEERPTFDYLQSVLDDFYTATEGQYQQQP
Protocol: A mixture of a 10× kinase buffer (500 mM MOPS at pH 7.5, 1 mM EGTA, 1 mM Sodium Vanadate, 1% β-mercaptoethanol and 100 mM Magnesium Acetate), ATP (5 μM final from a 10 mM stock), polyGluTyr (0.1 mg/mL final from a 1 mg/mL stock), γ-^33P ATP (10 μCi/μL stock) and water (20 μL/well) was added to each well of a Streptavidin Flashplate.
Test compound in 100% DMSO (0.5 μL) was added to the appropriate wells. Diluted Lyn kinase (human) (Upstate Biotechnology, Lake Placid, N.Y.) (diluted in a buffer consisting of 50 mM Tris at pH 7.5, 0.1 mM EGTA, Sodium Vanadate (0.1 mM), β-mercaptoethanol (0.1%) and 1 mg/mL bovine serum albumin) (2.5 μL) was added to the wells to initiate the reactions.
The reaction plates were incubated at 30° C. for 40 min. The reaction was terminated by the addition of a 3% phosphoric acid solution (5 μL). The reaction product (10 μL) was spotted onto a P30 filtermat and washed for 5 minutes in phosphoric acid (75 mM). The wash sequence was repeated two more times, followed with one final wash in methanol. The plates were then dried, sealed and read on the TopCount scintillation counter after adding 30 μL scintillation fluid.
as §1

T1 sequence (P04626 679-1255): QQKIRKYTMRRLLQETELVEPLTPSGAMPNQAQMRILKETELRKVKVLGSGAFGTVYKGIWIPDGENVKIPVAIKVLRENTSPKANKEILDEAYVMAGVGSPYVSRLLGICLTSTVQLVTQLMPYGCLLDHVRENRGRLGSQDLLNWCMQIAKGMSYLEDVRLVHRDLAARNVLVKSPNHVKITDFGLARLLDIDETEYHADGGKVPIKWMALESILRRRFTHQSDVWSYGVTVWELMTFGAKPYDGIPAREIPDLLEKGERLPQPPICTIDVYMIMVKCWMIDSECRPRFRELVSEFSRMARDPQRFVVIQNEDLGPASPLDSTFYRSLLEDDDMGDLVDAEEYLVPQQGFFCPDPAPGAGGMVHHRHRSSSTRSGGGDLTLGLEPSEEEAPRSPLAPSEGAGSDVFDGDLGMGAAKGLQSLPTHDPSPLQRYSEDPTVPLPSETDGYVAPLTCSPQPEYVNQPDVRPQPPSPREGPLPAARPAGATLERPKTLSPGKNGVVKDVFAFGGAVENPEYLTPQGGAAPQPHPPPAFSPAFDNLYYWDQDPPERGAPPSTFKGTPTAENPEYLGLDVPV

SMILES | pIC50 (HER-2) | inhibition at 2 µM (c-Src kinase) [%] | inhibition at 2 µM (Lyn kinase) [%] | pIC50 (c-Src kinase) | pIC50 (Lyn kinase) | inhibition at 1 µM (HER-2; test concentration of 1 μM, read-out: HER-2 percent inhibition) [%]
N#Cc1c(N2CCOCC2)nc2sc(C(=O)Nc3ccc(CN4CCOCC4)cc3)c3c2c1N(c1c(Cl)ccc2c1OCO2)C(=O)N3 [Cpd 8, 5-(5-chloro-benzo[1,3]dioxol-4-yl)-6-cyano-7-morpholin-4-yl-4-oxo-4,5-dihydro-3H-1-thia-3,5,8-triaza-acenaphthylene-2-carboxylic acid (4-morpholin-4-ylmethyl-phenyl)-amide] | ~4.00 | -21 | 40 | – | – | –
CCOC(=O)c1sc2nc(-c3cc(F)ccc3Cl)c(C#N)c3c2c1NC(=O)N3c1ccncc1 [Cpd 15, 7-(2-chloro-5-fluoro-phenyl)-6-cyano-4-oxo-5-pyridin-4-yl-4,5-dihydro-3H-1-thia-3,5,8-triaza-acenaphthylene-2-carboxylic acid ethyl ester] | < 4.00 | -0.6 | – | – | – | –
CN1CCC(NC(=O)c2sc3ncc(C#N)c4c3c2NC(=O)N4c2c(Cl)ccc3c2OCO3)CC1 [Cpd 10, 5-(5-chloro-benzo[1,3]dioxol-4-yl)-6-cyano-4-oxo-4,5-dihydro-3H-1-thia-3,5,8-triaza-acenaphthylene-2-carboxylic acid (1-methyl-piperidin-4-yl)-amide] | 5.15 | – | – | 7.06 | 6.57 | –
N#Cc1cnc2sc(C(=O)Nc3ccc(CN4CCOCC4)cc3)c3c2c1N(c1c(Cl)ccc2c1OCO2)C(=O)N3 [Cpd 4, 5-(5-chloro-benzo[1,3]dioxol-4-yl)-6-cyano-4-oxo-4,5-dihydro-3H-1-thia-3,5,8-triaza-acenaphthylene-2-carboxylic acid (4-morpholin-4-ylmethyl-phenyl)-amide] | 5.27 | – | – | 7.24 | 6.32 | –
N#Cc1cnc2sc(C(=O)Nc3ccc(CCN4CCCCC4)cc3)c3c2c1N(c1c(Cl)ccc2c1OCO2)C(=O)N3 [Cpd 11, 5-(5-chloro-benzo[1,3]dioxol-4-yl)-6-cyano-4-oxo-4,5-dihydro-3H-1-thia-3,5,8-triaza-acenaphthylene-2-carboxylic acid [4-(2-piperidin-1-yl-ethyl)-phenyl]-amide] | 5.54 | – | – | 7.15 | 6.95 | –
COc1cc(N2C(=O)Nc3c(C(=O)Nc4ccc(CCN5CCOCC5)cc4)sc4ncc(C#N)c2c34)c(Cl)cc1Cl [Cpd 6, 6-cyano-5-(2,4-dichloro-5-methoxy-phenyl)-4-oxo-4,5-dihydro-3H-1-thia-3,5,8-triaza-acenaphthylene-2-carboxylic acid [4-(2-morpholin-4-yl-ethyl)-phenyl]-amide] | ~4.00 | – | 75 | 6.43 | – | –
CC1CCN(Cc2ccc(NC(=O)c3sc4ncc(C#N)c5c4c3NC(=O)N5c3c(Cl)ccc4c3OCO4)cc2)CC1 [Cpd 19, 5-(5-chloro-benzo[1,3]dioxol-4-yl)-6-cyano-4-oxo-4,5-dihydro-3H-1-thia-3,5,8-triaza-acenaphthylene-2-carboxylic acid [4-(4-methyl-piperidin-1-ylmethyl)-phenyl]-amide] | – | 90 | – | – | – | 49
COC1CCN(Cc2ccc(NC(=O)c3sc4ncc(C#N)c5c4c3NC(=O)N5c3c(Cl)ccc4c3OCO4)cc2)CC1 [Cpd 18, 5-(5-chloro-benzo[1,3]dioxol-4-yl)-6-cyano-4-oxo-4,5-dihydro-3H-1-thia-3,5,8-triaza-acenaphthylene-2-carboxylic acid [4-(4-methoxy-piperidin-1-ylmethyl)-phenyl]-amide] | 5.91 | – | 86 | – | – | –
COc1cc(N2C(=O)Nc3c(C(=O)Nc4ccc(CN5CCOCC5)cc4)sc4ncc(C#N)c2c34)c(Cl)cc1Cl [Cpd 5, 6-cyano-5-(2,4-dichloro-5-methoxy-phenyl)-4-oxo-4,5-dihydro-3H-1-thia-3,5,8-triaza-acenaphthylene-2-carboxylic acid (4-morpholin-4-ylmethyl-phenyl)-amide] | < 5.00 | – | 83 | 6.45 | – | –
CCOC(=O)c1sc2nc(N3CCOCC3)c(C#N)c3c2c1NC(=O)N3c1c(Cl)ccc2c1OCO2 [Cpd 7, 5-(5-chloro-benzo[1,3]dioxol-4-yl)-6-cyano-7-morpholin-4-yl-4-oxo-4,5-dihydro-3H-1-thia-3,5,8-triaza-acenaphthylene-2-carboxylic acid ethyl ester] | < 4.00 | -1 | 43 | – | – | –
N#Cc1cnc2sc(C(=O)Nc3ccc(CCN4CCOCC4)cc3)c3c2c1N(c1c(Cl)ccc2c1OCO2)C(=O)N3 [Cpd 13, 5-(5-chloro-benzo[1,3]dioxol-4-yl)-6-cyano-4-oxo-4,5-dihydro-3H-1-thia-3,5,8-triaza-acenaphthylene-2-carboxylic acid [4-(2-morpholin-4-yl-ethyl)-phenyl]-amide] | < 6.00 | 78 | 76 | – | – | –
Cc1nc2sc(C(=O)Nc3ccc(CN4CCOCC4)cc3)c3c2c(c1C#N)N(c1c(Cl)ccc2c1OCO2)C(=O)N3 [Cpd 9, 5-(5-chloro-benzo[1,3]dioxol-4-yl)-6-cyano-7-methyl-4-oxo-4,5-dihydro-3H-1-thia-3,5,8-triaza-acenaphthylene-2-carboxylic acid (4-morpholin-4-ylmethyl-phenyl)-amide] | < 5.00 | 11 | 58 | – | – | –
CN1CCN(CCc2ccc(NC(=O)c3sc4ncc(C#N)c5c4c3NC(=O)N5c3c(Cl)ccc4c3OCO4)cc2)CC1 [Cpd 12, 5-(5-chloro-benzo[1,3]dioxol-4-yl)-6-cyano-4-oxo-4,5-dihydro-3H-1-thia-3,5,8-triaza-acenaphthylene-2-carboxylic acid {4-[2-(4-methyl-piperazin-1-yl)-ethyl]-phenyl}-amide] | 5.26 | 91 | 93 | – | – | –
CCOC(=O)c1sc2nc(O)c(C#N)c3c2c1NC(=O)N3c1ccncc1 [Cpd 14, 6-cyano-7-hydroxy-4-oxo-5-pyridin-4-yl-4,5-dihydro-3H-1-thia-3,5,8-triaza-acenaphthylene-2-carboxylic acid ethyl ester] | < 4.00 | 11 | – | – | – | –
